Measurements from ChEMBL document CHEMBL5331077, “Combining pharmacophore models derived from DNA-encoded chemical libraries with structure-based exploration to predict Tankyrase 1 inhibitors” (Eur J Med Chem, 2023).
Calls of active or inactive are those of the source. The calls are words filed in the database; no cut-off is given here.

How the values were obtained:
[1] = target: T1, Poly [ADP-ribose] polymerase tankyrase-1 (Homo sapiens, UniProt O95271); test: Inhibition of TNKS1 (unknown origin) using biotinylated NAD as substrate preincubated for 30 mins followed by substrate addition and measured after 1 hr by BioTek synergy 2 microplate reader analysis
T1 sequence (O95271 whole entry): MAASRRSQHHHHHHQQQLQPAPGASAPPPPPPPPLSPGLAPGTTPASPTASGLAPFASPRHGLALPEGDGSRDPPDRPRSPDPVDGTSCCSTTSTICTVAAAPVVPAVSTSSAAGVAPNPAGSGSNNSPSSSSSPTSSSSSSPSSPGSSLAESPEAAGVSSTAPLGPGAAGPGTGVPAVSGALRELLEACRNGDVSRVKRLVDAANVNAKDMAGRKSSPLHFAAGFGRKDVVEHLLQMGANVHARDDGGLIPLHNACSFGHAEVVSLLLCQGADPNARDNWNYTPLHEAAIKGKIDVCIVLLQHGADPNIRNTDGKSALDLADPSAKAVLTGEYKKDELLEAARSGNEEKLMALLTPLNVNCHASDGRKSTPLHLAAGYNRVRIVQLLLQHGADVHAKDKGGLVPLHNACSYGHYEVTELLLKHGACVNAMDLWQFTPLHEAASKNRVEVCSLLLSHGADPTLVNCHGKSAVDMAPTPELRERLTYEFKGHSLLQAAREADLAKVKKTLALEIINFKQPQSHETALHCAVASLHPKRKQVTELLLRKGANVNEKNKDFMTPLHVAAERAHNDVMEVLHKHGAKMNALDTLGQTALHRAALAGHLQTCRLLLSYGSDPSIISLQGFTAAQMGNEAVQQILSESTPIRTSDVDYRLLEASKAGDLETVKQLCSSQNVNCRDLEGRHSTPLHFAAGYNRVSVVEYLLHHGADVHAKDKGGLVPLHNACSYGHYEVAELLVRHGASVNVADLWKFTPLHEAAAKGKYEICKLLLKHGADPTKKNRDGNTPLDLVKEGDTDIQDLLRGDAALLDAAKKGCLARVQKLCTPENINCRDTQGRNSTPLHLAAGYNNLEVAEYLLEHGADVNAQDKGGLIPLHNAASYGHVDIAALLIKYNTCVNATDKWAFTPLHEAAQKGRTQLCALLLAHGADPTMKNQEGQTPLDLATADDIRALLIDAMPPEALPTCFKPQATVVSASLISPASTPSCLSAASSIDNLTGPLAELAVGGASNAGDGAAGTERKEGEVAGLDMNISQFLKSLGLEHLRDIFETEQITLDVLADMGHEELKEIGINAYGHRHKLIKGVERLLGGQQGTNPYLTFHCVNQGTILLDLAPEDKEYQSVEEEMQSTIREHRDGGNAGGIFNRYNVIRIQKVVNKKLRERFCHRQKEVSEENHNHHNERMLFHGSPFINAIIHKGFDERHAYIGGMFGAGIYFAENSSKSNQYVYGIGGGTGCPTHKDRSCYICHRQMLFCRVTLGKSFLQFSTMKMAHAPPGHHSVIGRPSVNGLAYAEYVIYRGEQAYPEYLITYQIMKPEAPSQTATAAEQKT

[2] = target: T2, Protein mono-ADP-ribosyltransferase PARP10 (Homo sapiens) (UniProt Q53GL7); test: Inhibition of PARP10 (unknown origin)
T2 sequence (whole entry): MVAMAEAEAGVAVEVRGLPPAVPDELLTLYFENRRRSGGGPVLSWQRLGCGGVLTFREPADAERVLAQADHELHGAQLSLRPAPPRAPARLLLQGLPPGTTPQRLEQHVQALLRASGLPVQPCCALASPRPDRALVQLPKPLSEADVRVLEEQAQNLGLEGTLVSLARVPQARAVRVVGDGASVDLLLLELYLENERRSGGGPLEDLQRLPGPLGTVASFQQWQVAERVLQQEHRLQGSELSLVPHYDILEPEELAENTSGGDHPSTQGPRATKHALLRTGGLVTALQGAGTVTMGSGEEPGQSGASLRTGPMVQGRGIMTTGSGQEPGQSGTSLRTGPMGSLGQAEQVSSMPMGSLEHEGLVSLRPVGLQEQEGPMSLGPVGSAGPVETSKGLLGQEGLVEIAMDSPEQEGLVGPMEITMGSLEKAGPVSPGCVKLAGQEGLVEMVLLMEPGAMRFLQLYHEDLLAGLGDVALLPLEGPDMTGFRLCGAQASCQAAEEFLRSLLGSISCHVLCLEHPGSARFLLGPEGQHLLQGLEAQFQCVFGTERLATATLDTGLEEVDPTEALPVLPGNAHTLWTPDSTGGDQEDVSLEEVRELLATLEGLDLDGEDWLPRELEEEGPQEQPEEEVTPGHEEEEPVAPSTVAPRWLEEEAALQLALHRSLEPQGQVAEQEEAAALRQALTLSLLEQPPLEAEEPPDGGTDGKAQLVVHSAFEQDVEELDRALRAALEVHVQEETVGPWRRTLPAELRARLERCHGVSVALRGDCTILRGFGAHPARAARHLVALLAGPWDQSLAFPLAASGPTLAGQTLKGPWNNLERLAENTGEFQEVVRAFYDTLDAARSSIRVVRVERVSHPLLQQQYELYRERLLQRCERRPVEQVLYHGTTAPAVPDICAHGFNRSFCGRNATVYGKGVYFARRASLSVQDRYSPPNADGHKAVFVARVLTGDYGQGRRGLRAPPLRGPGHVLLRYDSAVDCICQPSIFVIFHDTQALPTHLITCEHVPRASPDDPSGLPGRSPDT

[3] = target: Protein mono-ADP-ribosyltransferase PARP14 (Homo sapiens) (UniProt Q460N5); test: Inhibition of PARP14 (unknown origin)
Protein mono-ADP-ribosyltransferase PARP14 (Homo sapiens), sequence (Q460N5 whole entry): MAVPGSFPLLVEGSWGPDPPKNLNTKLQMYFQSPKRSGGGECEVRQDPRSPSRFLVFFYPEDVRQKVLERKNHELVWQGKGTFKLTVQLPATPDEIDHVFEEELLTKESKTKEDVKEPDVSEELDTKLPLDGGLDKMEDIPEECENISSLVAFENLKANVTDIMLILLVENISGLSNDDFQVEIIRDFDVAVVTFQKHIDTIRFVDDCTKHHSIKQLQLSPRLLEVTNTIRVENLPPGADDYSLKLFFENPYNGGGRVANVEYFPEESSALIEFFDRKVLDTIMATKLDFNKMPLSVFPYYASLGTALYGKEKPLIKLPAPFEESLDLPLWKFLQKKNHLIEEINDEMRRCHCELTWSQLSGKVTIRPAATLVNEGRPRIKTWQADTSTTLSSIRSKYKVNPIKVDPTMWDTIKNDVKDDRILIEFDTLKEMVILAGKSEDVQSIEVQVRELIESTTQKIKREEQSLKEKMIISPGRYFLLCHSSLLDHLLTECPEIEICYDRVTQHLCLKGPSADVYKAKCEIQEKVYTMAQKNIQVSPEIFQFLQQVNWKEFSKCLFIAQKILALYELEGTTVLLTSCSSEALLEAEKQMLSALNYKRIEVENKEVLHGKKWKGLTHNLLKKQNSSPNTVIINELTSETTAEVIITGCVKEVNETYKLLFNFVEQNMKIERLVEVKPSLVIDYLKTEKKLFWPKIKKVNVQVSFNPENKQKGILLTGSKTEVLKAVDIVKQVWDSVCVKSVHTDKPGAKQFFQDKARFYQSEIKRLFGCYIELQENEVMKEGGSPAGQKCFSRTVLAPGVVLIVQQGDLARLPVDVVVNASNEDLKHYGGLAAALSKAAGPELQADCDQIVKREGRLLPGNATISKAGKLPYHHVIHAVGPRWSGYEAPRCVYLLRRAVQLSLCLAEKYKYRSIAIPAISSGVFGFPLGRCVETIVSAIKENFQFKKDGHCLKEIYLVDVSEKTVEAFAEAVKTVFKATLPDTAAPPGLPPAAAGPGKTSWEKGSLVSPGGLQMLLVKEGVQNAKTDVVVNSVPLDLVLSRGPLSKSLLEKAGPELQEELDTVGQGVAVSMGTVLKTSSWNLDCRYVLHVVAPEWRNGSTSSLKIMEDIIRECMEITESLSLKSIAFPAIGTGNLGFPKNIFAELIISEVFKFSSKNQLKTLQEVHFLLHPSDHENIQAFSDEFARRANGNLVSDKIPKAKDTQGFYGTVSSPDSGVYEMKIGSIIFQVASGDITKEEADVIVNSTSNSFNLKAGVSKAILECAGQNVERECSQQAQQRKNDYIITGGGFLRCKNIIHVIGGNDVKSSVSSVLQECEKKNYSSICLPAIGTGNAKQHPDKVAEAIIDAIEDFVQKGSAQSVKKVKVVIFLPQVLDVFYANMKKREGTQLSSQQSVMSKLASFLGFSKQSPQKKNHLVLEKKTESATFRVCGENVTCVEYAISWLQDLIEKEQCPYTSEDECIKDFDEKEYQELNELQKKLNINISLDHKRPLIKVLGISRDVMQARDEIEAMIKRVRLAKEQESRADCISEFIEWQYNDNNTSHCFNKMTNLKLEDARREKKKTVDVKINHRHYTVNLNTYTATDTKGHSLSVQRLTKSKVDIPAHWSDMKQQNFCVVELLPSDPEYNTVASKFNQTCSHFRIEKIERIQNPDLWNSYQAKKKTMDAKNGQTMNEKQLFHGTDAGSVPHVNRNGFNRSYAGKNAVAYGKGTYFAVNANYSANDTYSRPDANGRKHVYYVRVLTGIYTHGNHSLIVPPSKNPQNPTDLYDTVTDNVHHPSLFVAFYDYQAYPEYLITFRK

Structure (SMILES) | IC50 [1] | inhibition [2] | inhibition [3]
CNC(=O)[C@H](CNC(=O)CCn1c(=O)[nH]c(=O)c2ccccc21)NC(=O)c1cnc2ccccc2c1 | 0.8 nM | inactive | inactive
Cc1cc(OCC(=O)NCCNC(=O)c2cccc(COc3ccccc3C(N)=O)c2)c2c3c(c(=O)oc2c1)CCC3 | 2 nM | Active | inactive
